From the NIST ThermoML archive (doi:10.1016/j.jct.2008.09.008)
Numbers after ± are expanded uncertainties.

Assay: wn = mass fraction of the nth substance listed
Conditions: 101 kPa, Liquid; for viscosity: Capillary tube (Ostwald / Ubbelohde) method; for speed of sound: Linear variable-path acoustic interferometer; for mass density: Pycnometric method

OCCCCO [1,4-butanediol] + O
Conditions | mass density, w1 = 0.2 [kg/m3] | mass density, w1 = 0.4 [kg/m3] | speed of sound, w1 = 0.2 [m/s] | speed of sound, w1 = 0.4 [m/s] | viscosity, w1 = 0.2 [mPa·s] | viscosity, w1 = 0.4 [mPa·s]
298.15 K | 1004.93 ± 0.25 | 1013.41 ± 0.25 | 1605.3 ± 1.8 | 1684.2 ± 1.9 | 3.421 ± 0.019 | 6.454 ± 0.034
303.15 K | 1002.93 ± 0.26 | 1010.75 ± 0.26 | 1606.6 ± 1.8 | 1677.4 ± 1.8 | 2.966 ± 0.017 | 5.738 ± 0.031
308.15 K | 1000.79 ± 0.27 | 1008.04 ± 0.27 | 1607.8 ± 1.8 | 1670.7 ± 1.8 | 2.542 ± 0.015 | 4.993 ± 0.028
313.15 K | 998.53 ± 0.28 | 1005.28 ± 0.28 | 1608.5 ± 1.8 | 1664 ± 2 | 2.142 ± 0.013 | 4.221 ± 0.024
318.15 K | 996.15 ± 0.29 | 1002.46 ± 0.29 | 1609.3 ± 1.8 | 1657.2 ± 1.8 | 1.774 ± 0.011 | 3.421 ± 0.02
